Results published in patent US11873298B2, “Compounds and uses thereof” (JANSSEN PHARMACEUTICA NV, priority 2017, dated 2024).

How the values were obtained:
SCD5 [1] = biological target: T1, SCD5 (Homo sapiens, UniProt Q86SK9); assay: Growth of yeast surviving solely on human SCD5; format: cell-based
T1 construct: host or cells: S. cerevisiae ole1Δ strain (W303 pdr1Δ pdr3Δ background), plasmid pRS316 with TDH3 promoter and CYC1 terminator
T1 sequence (Q86SK9 1-330): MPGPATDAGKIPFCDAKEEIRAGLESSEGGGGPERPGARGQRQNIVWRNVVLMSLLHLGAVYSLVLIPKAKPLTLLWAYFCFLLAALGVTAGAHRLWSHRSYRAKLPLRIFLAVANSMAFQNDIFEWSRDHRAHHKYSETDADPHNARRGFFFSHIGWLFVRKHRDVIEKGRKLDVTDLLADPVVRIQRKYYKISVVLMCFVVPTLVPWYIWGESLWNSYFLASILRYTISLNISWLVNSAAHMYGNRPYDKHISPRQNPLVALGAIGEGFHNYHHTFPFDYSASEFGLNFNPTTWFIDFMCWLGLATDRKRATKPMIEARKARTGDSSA
Experimental: (§1) FIG. 6 is a series of graphs showing that commercial Scd inhibitors target human SCD1/SCD5 in yeast. Yeast surviving solely on yeast OLE1, or human SCD1 or SCD5, were treated with four commercial Scd inhibitors at indicated concentrations. Data are expressed as a percent of the DMSO-treated condition.
(§2) FIG. 7 is a series of graphs showing that 1,2,4-oxadiazoles target human SCD1 and SCD5. Three “SCD” strains expressing yeast OLE1 or human SCD1 or SCD5 were treated with five representative 1,2,4-oxadiazoles and a cycloheximide toxicity control at concentrations indicated on the log10 x-axis. The y-axis indicates the percent of the DMSO-treated condition. […] Approximately one half of all (250) 1,2,4-oxadiazoles tested inhibited SCD1 or SCD5 in a manner that was reversed by oleic/palmitoleic acid treatment.

yeast OLE1 = biological target: T2, yeast OLE1 (Saccharomyces cerevisiae, UniProt P21147); assay: Growth of yeast surviving solely on yeast OLE1; format: cell-based
T2 construct: expressed in transfected cells; host or cells: S. cerevisiae ole1Δ strain (W303 pdr1Δ pdr3Δ background), plasmid pRS316 with TDH3 promoter and CYC1 terminator
T2 sequence (P21147 1-510): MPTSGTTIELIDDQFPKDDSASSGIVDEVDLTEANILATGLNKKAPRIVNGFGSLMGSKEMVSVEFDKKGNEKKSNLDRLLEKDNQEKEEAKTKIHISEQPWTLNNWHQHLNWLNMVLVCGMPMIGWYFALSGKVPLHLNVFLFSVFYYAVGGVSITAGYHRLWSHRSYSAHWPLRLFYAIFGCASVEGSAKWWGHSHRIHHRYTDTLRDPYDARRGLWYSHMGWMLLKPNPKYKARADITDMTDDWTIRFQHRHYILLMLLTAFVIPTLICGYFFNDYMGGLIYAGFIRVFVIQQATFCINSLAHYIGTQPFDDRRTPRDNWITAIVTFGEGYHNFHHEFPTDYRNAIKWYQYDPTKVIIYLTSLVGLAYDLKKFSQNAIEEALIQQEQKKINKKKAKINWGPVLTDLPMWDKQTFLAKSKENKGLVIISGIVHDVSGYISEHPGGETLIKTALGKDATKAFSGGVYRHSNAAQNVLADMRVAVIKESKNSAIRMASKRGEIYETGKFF
Experimental: as §1, §2

SCD1 [2] = biological target: T3, SCD1 (Homo sapiens, UniProt O00767); assay: Growth of yeast surviving solely on human SCD1; format: cell-based
T3 construct: host or cells: S. cerevisiae ole1Δ strain (W303 pdr1Δ pdr3Δ background), plasmid pRS316 with TDH3 promoter and CYC1 terminator
T3 sequence (O00767 1-359): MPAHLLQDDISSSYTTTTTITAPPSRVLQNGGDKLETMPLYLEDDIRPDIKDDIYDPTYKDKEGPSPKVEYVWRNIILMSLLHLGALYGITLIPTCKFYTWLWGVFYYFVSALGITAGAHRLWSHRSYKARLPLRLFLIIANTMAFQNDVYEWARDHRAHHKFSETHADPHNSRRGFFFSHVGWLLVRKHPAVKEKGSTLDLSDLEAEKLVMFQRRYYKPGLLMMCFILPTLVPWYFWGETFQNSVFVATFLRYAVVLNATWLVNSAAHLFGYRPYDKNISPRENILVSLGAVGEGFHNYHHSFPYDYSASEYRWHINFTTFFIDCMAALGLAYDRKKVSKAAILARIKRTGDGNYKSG
Experimental: as §1, §2

[3] = tested on: U2OS cells transiently overexpressing alpha-synuclein; assay: U2OS transient overexpression induced cytotoxicity assay (ATP content, CellTiter-Glow); format: cell-based, human; settings: 72 hours post transfection
Experimental: U2OS (Sigma-Aldrich), a human bone osteosarcoma epithelial cell line, is regularly maintained in McCoy's 5A medium (ATCC) supplemented with 10% FBS (ThermoFisher) between passage 11-21 and sub -cultured twice a week for the assay.
On the day of experiment, cells are about 80% confluence and trypsinized using 0.25% trypsin-EDTA (ThermoFisher Inc.) for 5 minutes at 37 c. Based on a ratio of 2 ug DNA/2e5 cells, required cells are spun down at 800 rpm for 5 minutes at room temperature. Cells are then re-suspended in SE solution (Lonza Inc.) at a density of 2e4 cells/μl. Nucleofection is performed using 4D-Nucleofector™ System (Lonza Inc.) under program code CM130. Cells are allowed to recover in the cuvette at room temperature for 10-15 minutes before further handling. Pre-warmed medium is added and cells suspension is thoroughly but gently mixed before plating. Cells are seeded at 2e4 cells/100 µl/well into 96 well PLD-coated white plate (Corning) using customized Viaflow program (Integra Biosciences). Serial dilution of drugs is carried out in DMSO. Drug solution is prepared at 6× fold, 20 ul of which is added to cells 4 hours after transfection. The final DMSO concentration is 0.3%. Microclimate lid (Labcyte) is strongly recommended to reduce evaporation and variation. Seventy-two hours post transfection, cells are lysed using CellTiter-Glow (Promega) and ATP content is determined using a luminescence plate reader (Perkin Elmer).
% Maximum fold rescue at each concentration is calculated as follows: […]
FK506 (tacrolimus), a macrolide calcineurin inhibitor, is used as reference compound in the assay.
% Rescue (normalized by max fold rescue of FK506)=(% Fold^αSyn drug-100)*100/(% Max fold^αSyn FK506-100).

[4] = tested on: yeast strains expressing the human α-synuclein; settings: reference compound, earlier work; cited from earlier work
SCD1 [5] = biological target: T3, SCD1; assay: Growth inhibition of humanized yeast strain expressing SCD1 as sole desaturase; format: cell-based; settings: humanized yeast strain expressing SCD1
Method in brief: (§3)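 OD600 growth read-out. ole1Δ yeast, pdr1Δ pdr3Δ, with Ole1/SCD1/SCD5 on a plasmid; SX-Ura media throughout; 2× cell density 0.02 in CSM-Galactose; DMSO compound dilutions; humidified 30° C.; Ole1 stopped at 24 h, SCD1/SCD5 at 40 h.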

SCD5 [6] = biological target: T1, SCD5; assay: Growth inhibition of humanized yeast strain expressing SCD5 as sole desaturase; format: cell-based; settings: humanized yeast strain expressing SCD5
Method in brief: as §3

[7] = tested on: yeast strains expressing the human ApoE4; assay: Yeast ApoE4 toxicity rescue assay (OD600 growth); settings: 24 h; for Emax: read-out: ApoE4 Emax; for EC50: read-out: ApoE4 EC50
From the text: The induced expression of α-synuclein and ApoE4 confers cytotoxicity, thus enabling the identification of compounds that can restore cell viability. This instantaneous/synchronous induction of α-synuclein and ApoE4 can be achieved due to the following expression control. In glucose-containing media, gene expression from the GAL1 promoter is ‘off’ and actively repressed by additional epigenetic factors. In raffinose, expression is ‘off’, but the promoter not actively repressed. Upon transition to galactose-containing media, the promoter is instantaneously turned ‘on’ to achieve robust and synchronous induction of α-synuclein or ApoE4 expression. This highly regulated induction provides a robust window for the determination of both efficacy (amplitude of protective effect) and potency (concentration of protective effect) of cytoprotective compounds.
Re-suspended compound stocks were subsequently arrayed into 384 well compound plates using automated pipetting. All other wells not receiving stock compound were filled with 10 μL of 100% DMSO using an automated plate filler (Multidrop Combi). An 11 point, 2-fold serial dilution was then performed using the robotic platform. Compound assay plates were covered with foil and stored at −20° C. until use.
Each strain was handled according to standard protocols and cultured in media composed of CSM (complete synthetic media), YNB (yeast nitrogenous base), and a 2% (w/v) carbon source (either glucose, raffinose, or galactose).
In a standard yeast assay, a single-use aliquot of cells was thawed on ice and diluted into CSM/glucose (5 mL). Cultures were grown for 8 hours at 30° C. This pre-growth enables the yeast to exit the thaw and begin to grow without expressing aSyn or ApoE4. After 8 hours, cell density (OD600) was determined and cultures diluted to an OD600 of 0.01 in CSM/raffinose for an overnight culture phase at 30° C. During this period, the active glucose repression of the GAL1 promoter was relieved; however, expression of the α-Syn/ApoE4 genes were not yet induced. After ˜16 hours of growth, cultures attain an OD600 of 0.4-0.8 and were ready to apply to assay plates containing compound.
Compound profiling assays were executed in clear-bottom 384 well plates. First, compound plates were thawed at room temperature for 45′, centrifuged at 1,000×g for 1 minute, and the foil removed. Clear 384 well assay plates were then filled with 15 μL of CSM/galactose. […] The pin tool was washed iteratively with both 50% DMSO and 100% ethanol between each assay plate. After delivering compound to each assay plate, the overnight CSM/raffinose aSyn or ApoE4 cultures were added at a 2X cell density (0.04 for aSyn and 0.08 for ApoE4) in CSM/galactose to achieve a final assay OD600 of 0.02 and 0.04 for aSyn and ApoE, respectively. The cultures (15 μL per well) were then dispensed to the compound -containing 384 well assay plates using an automated plate filler. Plates were incubated in a humidified 30° C. incubator for 40 or 24 hours for aSyn and ApoE4, respectively. The ODsoo of each assay plate was then read with a microplate reader (e.g., Perkin Elmer Envision).
The efficacy and potency of compounds were calculated according to the following. Raw data (OD600 values) were first background corrected to account for OD600 contributed by the plate and media itself. The efficacy (percent above DMSO, herein referred to as “Emax”) was calculated according to the equation: (Experimental well−DMSO control well)/(DMSO control well)*100. […] Normalized dose-response data was fit with a logistic regression curve using Spotfire (TIBCO), or similar curve-fitting software package. EC50 values were then reported along with EMax to provide both efficacy and potency measures for each analog and enable further compound design.

Ole1 = biological target: T4, Ole1 (Saccharomyces cerevisiae, UniProt P21147); assay: Growth inhibition of yeast strain expressing Ole1 as sole desaturase; format: cell-based; settings: yeast strain expressing Ole1 as sole desaturase
T4 construct: expressed in transfected cells; host or cells: S. cerevisiae ole1Δ strain (W303 pdr1Δ pdr3Δ background), plasmid pRS316 with TDH3 promoter and CYC1 terminator
T4 sequence (P21147 1-510): T2 sequence (P21147 1-510)
Method in brief: as §3

[8] = tested on: yeast strains expressing the human α-synuclein; assay: Yeast α-synuclein toxicity rescue assay (OD600 growth); settings: 40 h; for EC50: read-out: α-Syn EC50; for Emax: read-out: α-Syn Emax

Row | SMILES | growth of SCD5-expressing yeast (percent of the DMSO-treated condition) (SCD5 [1]) | growth of the strain expressing yeast OLE1 (percent of the DMSO-treated condition) (yeast OLE1) | growth of SCD1-expressing yeast (percent of the DMSO-treated condition) (SCD1 [2]) | % Rescue (normalized by FK506 max rescue) ([3]; 0.01 μM) [%] | % Rescue (normalized by FK506 max rescue) ([3]; 0.1 μM) [%] | % Rescue (normalized by FK506 max rescue) ([3]; 0.3 μM) [%] | % Rescue (normalized by FK506 max rescue) ([3]; 1 μM) [%] | rescue of αSyn toxicity in yeast models [4] | IC50 (SCD1 [5]) [µM] | IC50 (SCD5 [6]) [µM] | Emax [7] [%] | IC50 (Ole1) [µM] | EC50 [8] [µM] | Emax [8] [%] | EC50 [7] [µM]
1 | C[C@@H]1C[C@@H]([C@H](O)CC2CC(=O)NC(=O)C2)C(=O)[C@@H](C)C1 [Cyclohexamide, cycloheximide] | inhibited growth of all three strains with the same potency | inhibited growth of all three strains with the same potency | inhibited growth of all three strains with the same potency |  |  |  |  |  |  |  |  |  |  |  | 
2 | Cc1nn(C)c2cc(-c3noc(C4CCN(C(=O)CNC(=O)c5ccccc5)CC4)n3)ccc12 [Example 40, N-(2-(4-(3-(1,3-dimethyl-1H-indazol-6-yl)-1,2,4-oxadiazol-5-yl)piperidin-1-yl)-2-oxoethyl)benzamide] |  |  |  | 107 | 137 | 105 | 77 |  |  |  |  |  |  |  | 
3 | CCOc1ccc(-c2noc(C3CCN(C(=O)CNC(=O)c4ccccc4)CC3)n2)cc1OC [Example 155, N-(2-(4-(3-(4-ethoxy-3-methoxyphenyl)-1,2,4-oxadiazol-5-yl)piperidin-1-yl)-2-oxoethyl)benzamide] |  |  |  | −23 | 83 | 44 | 10 |  |  |  |  |  |  |  | 
4 | C=CC[C@@H]1/C=C(\C)C[C@H](C)C[C@H](OC)[C@H]2O[C@@](O)(C(=O)C(=O)N3CCCC[C@H]3C(=O)O[C@H](/C(C)=C/[C@@H]3CC[C@@H](O)[C@H](OC)C3)[C@H](C)[C@@H](O)CC1=O)[C@H](C)C[C@@H]2OC [FK506, tacrolimus] |  |  |  |  |  |  |  | rescue αSyn toxicity |  |  |  |  |  |  | 
5 | CCOc1ccc(-c2noc(C3CCN(C(=O)NCCc4ccccc4)CC3)n2)cc1OC [compound 83] |  |  |  |  |  |  |  |  | > 45 | > 45 | 567 | > 45 | 9.31 | 151 | 
6 | CCOc1ccc(-c2noc(C3CCN(C(=O)[C@H]4CC(=O)N(c5ccccc5)C4)CC3)n2)cc1OC [compound 85] |  |  |  |  |  |  |  |  | > 45 | > 45 | 602 | > 45 | 12.6 | 486 | 17
7 | CCOc1ccc(-c2noc(C3CCN(C(=O)[C@@H]4CC(=O)N(c5ccccc5)C4)CC3)n2)cc1OC [compound 86] |  |  |  |  |  |  |  |  | > 45 | 33.3 | 633 | > 45 | 0.018 | 772 | 0.064
8 | Cc1nn(C)c2cc(-c3noc(N4CCN(C(=O)C5CC(=O)N(c6ccccc6)C5)CC4)n3)ccc12 (stereo not shown) [compound 96] |  |  |  |  |  |  |  |  | > 45 | > 45 | 840 | > 45 | 0.026 | 343 | 0.228
9 | CCOc1ccc(-c2noc(C3CCN(C(=O)CNC(=O)c4ccccc4)CC3)n2)cc1F [compound 97] |  |  |  |  |  |  |  |  | > 45 | 30 | 704 | > 45 | 0.707 | 132 | 3.88
10 | CCOc1ccc(-c2noc(C3CCN(C(=O)c4cnc(-c5ccccc5)[nH]4)CC3)n2)cc1OC [compound 98] |  |  |  |  |  |  |  |  | > 45 | 41.1 | 650 | > 45 | 8.01 | 386 | 9.75
11 | CCOc1ccc(-c2noc(C3CCN(C(=O)CNC(=O)c4ccccc4)CC3)n2)cc1Br [compound 99] |  |  |  |  |  |  |  |  | > 45 | > 45 | 663 | > 45 | 1.03 | 209 | 2.75
12 | CCOc1ccc(-c2noc(N3CCC(C(=O)N4CCCC(c5ccccc5)C4)CC3)n2)cc1OC (stereo not shown) [compound 100] |  |  |  |  |  |  |  |  | 32.8 | > 45 | 651 | > 45 | 1.19 | 385 | 2.11
